Assay results taken from ChEMBL document CHEMBL4052762, “Synthesis and biological evaluation of pyrrole-based chalcones as CYP1 enzyme inhibitors, for possible prevention of cancer and overcoming cisplatin resistance” (Bioorg Med Chem Lett, 2017).
Blank lines part the entries; values can stand above or below the molecule they belong to.

Columns and labels:
[1] = molecular target: Cytochrome P450 2C9 (Homo sapiens, UniProt P11712); assay: Inhibition of human CYP2C9 bound to yeast microsomal membrane using 3-cyano-7-ethoxycoumarin as substrate after 10 mins by fluorescence assay; type: ADME
Chain of Cytochrome P450 2C9 (P11712 whole entry): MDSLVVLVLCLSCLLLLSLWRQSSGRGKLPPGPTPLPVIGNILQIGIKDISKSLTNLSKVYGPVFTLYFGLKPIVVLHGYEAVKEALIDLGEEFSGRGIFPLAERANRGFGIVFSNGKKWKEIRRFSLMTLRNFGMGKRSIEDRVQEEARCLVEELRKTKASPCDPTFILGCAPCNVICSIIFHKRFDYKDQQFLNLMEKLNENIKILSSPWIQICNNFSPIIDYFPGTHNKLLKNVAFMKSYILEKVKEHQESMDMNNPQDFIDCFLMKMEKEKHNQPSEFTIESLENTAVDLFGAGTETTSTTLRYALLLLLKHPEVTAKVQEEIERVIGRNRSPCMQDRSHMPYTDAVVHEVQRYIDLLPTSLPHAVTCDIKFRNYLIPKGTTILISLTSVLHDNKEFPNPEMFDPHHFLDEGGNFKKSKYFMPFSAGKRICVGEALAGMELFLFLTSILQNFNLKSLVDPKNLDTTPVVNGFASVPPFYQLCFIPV

[2] = molecular target: Cytochrome P450 3A4 (Homo sapiens, UniProt P08684); assay: Inhibition of human CYP3A4 bound to yeast microsomal membrane using dibenzylfluorescein as substrate after 10 mins by fluorescence assay; type: ADME
Chain of Cytochrome P450 3A4 (P08684 whole entry): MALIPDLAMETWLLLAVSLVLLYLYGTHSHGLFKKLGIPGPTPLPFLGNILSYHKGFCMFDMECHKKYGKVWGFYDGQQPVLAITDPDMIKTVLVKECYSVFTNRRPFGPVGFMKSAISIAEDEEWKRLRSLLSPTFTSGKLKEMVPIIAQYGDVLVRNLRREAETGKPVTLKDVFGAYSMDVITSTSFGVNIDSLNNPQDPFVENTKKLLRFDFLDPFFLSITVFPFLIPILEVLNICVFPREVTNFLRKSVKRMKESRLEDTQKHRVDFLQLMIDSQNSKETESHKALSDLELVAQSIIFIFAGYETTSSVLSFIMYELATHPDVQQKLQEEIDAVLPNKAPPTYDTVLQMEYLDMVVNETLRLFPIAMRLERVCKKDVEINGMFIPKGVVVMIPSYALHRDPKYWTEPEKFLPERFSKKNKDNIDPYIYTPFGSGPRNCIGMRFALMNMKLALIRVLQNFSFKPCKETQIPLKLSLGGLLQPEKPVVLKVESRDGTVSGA

[3] = molecular target: T1, Cytochrome P450 1A1 (Homo sapiens, UniProt P04798); assay: Inhibition of human CYP1A1 bound to yeast microsomal membrane using 7-ethoxyresorufin as substrate after 10 mins by fluorescence assay
T1 sequence (P04798 whole entry): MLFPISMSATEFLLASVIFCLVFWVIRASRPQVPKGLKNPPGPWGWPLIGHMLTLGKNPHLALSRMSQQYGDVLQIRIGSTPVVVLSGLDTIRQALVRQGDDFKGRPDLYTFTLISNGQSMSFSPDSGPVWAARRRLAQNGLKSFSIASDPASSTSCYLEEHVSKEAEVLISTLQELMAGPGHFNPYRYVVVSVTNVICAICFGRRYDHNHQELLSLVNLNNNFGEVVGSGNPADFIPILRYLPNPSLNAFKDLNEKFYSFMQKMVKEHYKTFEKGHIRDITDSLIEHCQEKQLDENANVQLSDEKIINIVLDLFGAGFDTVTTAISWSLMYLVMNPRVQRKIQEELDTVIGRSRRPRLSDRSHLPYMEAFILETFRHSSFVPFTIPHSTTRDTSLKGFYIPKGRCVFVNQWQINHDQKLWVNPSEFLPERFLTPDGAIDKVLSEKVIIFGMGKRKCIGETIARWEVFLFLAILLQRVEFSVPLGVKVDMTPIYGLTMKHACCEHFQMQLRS

[4] = molecular target: T2, Cytochrome P450 1B1 (Homo sapiens, UniProt Q16678); assay: Inhibition of human CYP1B1 bound to yeast microsomal membrane using 7-ethoxyresorufin as substrate after 10 mins by fluorescence assay
T2 sequence (Q16678 whole entry): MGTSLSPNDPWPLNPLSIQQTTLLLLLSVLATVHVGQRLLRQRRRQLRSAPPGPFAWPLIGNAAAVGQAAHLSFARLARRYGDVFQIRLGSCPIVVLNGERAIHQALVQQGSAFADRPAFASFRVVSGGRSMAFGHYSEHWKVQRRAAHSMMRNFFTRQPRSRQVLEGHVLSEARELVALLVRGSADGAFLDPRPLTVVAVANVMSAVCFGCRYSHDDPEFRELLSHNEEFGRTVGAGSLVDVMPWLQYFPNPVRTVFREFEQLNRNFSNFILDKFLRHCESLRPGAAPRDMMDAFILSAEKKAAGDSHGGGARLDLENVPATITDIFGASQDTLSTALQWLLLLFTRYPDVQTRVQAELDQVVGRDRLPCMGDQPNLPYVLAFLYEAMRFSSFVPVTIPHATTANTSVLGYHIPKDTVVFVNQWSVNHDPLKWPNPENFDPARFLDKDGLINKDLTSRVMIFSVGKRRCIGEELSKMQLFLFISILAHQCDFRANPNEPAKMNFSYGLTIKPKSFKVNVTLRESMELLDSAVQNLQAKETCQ

[5] = molecular target: Cytochrome P450 2D6 (Homo sapiens, UniProt P10635); assay: Inhibition of human CYP2D6 bound to yeast microsomal membrane using 7-ethoxy-methyloxy-3-cyanocoumarin as substrate after 10 mins by fluorescence assay; type: ADME
Chain of Cytochrome P450 2D6 (P10635 whole entry): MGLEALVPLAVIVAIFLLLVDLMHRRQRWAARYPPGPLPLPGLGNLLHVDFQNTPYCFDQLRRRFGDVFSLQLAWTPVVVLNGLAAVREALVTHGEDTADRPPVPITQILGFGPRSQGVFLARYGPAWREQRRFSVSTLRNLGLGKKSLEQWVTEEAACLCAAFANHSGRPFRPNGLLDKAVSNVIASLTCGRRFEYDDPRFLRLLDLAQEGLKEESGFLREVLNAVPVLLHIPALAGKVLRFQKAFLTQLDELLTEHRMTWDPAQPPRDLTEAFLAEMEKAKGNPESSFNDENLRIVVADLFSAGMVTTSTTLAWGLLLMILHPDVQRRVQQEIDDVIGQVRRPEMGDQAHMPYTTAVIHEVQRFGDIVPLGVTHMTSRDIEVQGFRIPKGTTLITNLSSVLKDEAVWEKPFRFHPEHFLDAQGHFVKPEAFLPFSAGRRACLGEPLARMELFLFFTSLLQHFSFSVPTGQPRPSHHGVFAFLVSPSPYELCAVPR

[6] = molecular target: T3, Cytochrome P450 1A2 (Homo sapiens, UniProt P05177); assay: Inhibition of human CYP1A2 bound to yeast microsomal membrane using 3-cyano-7-ethoxycoumarin as substrate after 10 mins by fluorescence assay
T3 sequence (P05177 whole entry): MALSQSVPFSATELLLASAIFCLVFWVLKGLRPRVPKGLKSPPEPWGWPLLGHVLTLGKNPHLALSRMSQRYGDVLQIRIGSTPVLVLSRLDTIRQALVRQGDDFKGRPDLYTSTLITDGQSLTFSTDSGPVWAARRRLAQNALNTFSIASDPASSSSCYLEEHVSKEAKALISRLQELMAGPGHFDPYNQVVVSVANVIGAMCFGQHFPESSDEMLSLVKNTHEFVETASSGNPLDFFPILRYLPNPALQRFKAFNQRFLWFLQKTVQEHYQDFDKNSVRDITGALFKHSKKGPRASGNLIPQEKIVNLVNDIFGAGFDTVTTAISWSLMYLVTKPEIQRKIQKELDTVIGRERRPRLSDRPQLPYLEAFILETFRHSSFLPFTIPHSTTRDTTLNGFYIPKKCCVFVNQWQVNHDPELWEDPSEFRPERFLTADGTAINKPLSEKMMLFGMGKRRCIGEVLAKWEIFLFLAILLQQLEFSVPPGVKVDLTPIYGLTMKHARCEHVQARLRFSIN

[7] = molecular target: Cytochrome P450 2C19 (Homo sapiens, UniProt P33261); assay: Inhibition of human CYP2C19 bound to yeast microsomal membrane using 3-cyano-7-ethoxycoumarin as substrate after 10 mins by fluorescence assay; type: ADME
Chain of Cytochrome P450 2C19 (P33261 whole entry): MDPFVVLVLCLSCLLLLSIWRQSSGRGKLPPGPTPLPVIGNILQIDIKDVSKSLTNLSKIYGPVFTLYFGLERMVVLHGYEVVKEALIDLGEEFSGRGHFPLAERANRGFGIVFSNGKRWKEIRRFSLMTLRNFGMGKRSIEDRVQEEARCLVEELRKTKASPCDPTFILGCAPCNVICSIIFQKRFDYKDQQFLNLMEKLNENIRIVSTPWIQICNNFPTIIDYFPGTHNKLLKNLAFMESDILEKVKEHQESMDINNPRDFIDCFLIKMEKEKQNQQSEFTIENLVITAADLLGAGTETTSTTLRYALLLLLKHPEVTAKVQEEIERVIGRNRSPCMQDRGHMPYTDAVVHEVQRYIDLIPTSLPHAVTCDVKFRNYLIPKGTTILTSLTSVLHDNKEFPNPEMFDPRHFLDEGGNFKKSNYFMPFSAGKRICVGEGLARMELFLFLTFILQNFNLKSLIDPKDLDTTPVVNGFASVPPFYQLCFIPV

Structure (SMILES): COc1ccc(/C=C/C(=O)c2ccc[nH]2)cc1
- IC50 [1]: > 20 µM
- IC50 [2]: > 20 µM
- IC50 [3]: > 20 µM
- IC50 [4]: > 20 µM
- IC50 [5]: 16 µM
- IC50 [6]: 11.8 µM
- IC50 [7]: > 20 µM

Structure (SMILES): O=C(/C=C/c1c2ccccc2cc2ccccc12)c1ccc[nH]1
- IC50 [1]: > 20 µM
- IC50 [2]: > 20 µM
- IC50 [3]: > 20 µM
- IC50 [4]: > 20 µM
- IC50 [5]: 12 µM
- IC50 [6]: > 20 µM
- IC50 [7]: > 20 µM

Structure (SMILES): COc1cccc(/C=C/C(=O)c2ccc[nH]2)c1
- IC50 [1]: > 20 µM
- IC50 [2]: > 20 µM
- IC50 [3]: 6.2 µM
- IC50 [4]: 5.2 µM
- IC50 [5]: 11 µM
- IC50 [6]: 1.5 µM
- IC50 [7]: > 20 µM

Structure (SMILES): O=C(/C=C/c1ccc2c(c1)OCO2)c1ccc[nH]1
- IC50 [1]: > 20 µM
- IC50 [2]: > 20 µM
- IC50 [3]: 5.8 µM
- IC50 [4]: > 20 µM
- IC50 [5]: 14 µM
- IC50 [6]: 9.7 µM
- IC50 [7]: > 20 µM

Structure (SMILES): O=C(/C=C/c1cccc(Cl)c1)c1ccc[nH]1
- IC50 [1]: > 20 µM
- IC50 [2]: > 20 µM
- IC50 [3]: 16 µM
- IC50 [4]: 1.5 µM
- IC50 [5]: 14 µM
- IC50 [6]: 12 µM
- IC50 [7]: > 20 µM

Structure (SMILES): O=C(/C=C/c1cc([N+](=O)[O-])ccc1Cl)c1ccc[nH]1
- IC50 [1]: > 20 µM
- IC50 [2]: > 20 µM
- IC50 [3]: > 20 µM
- IC50 [4]: > 20 µM
- IC50 [5]: 12 µM
- IC50 [6]: 10.9 µM
- IC50 [7]: > 20 µM

Structure (SMILES): COc1cc(/C=C/C(=O)c2ccc[nH]2)cc(OC)c1OC
- IC50 [1]: > 20 µM
- IC50 [2]: > 20 µM
- IC50 [3]: > 20 µM
- IC50 [4]: > 20 µM
- IC50 [5]: 14 µM
- IC50 [6]: 15 µM
- IC50 [7]: > 20 µM

Structure (SMILES): CN(C)c1ccc(/C=C/C(=O)c2ccc[nH]2)cc1
- IC50 [1]: > 20 µM
- IC50 [2]: > 20 µM
- IC50 [3]: > 20 µM
- IC50 [4]: > 20 µM
- IC50 [5]: 13 µM
- IC50 [6]: 12.5 µM
- IC50 [7]: > 20 µM

Structure (SMILES): O=C(/C=C/C=C/c1ccccc1)c1ccc[nH]1
- IC50 [1]: > 20 µM
- IC50 [2]: > 20 µM
- IC50 [3]: > 20 µM
- IC50 [4]: > 20 µM
- IC50 [5]: 12 µM
- IC50 [6]: 10.5 µM
- IC50 [7]: > 20 µM

Structure (SMILES): O=C(/C=C/c1ccccc1F)c1ccc[nH]1
- IC50 [1]: > 20 µM
- IC50 [2]: > 20 µM
- IC50 [3]: > 20 µM
- IC50 [4]: 2.7 µM
- IC50 [5]: 16 µM
- IC50 [6]: 2.2 µM
- IC50 [7]: > 20 µM

Structure (SMILES): O=C(O)c1ccc(/C=C/C(=O)c2ccc[nH]2)cc1
- IC50 [1]: > 20 µM
- IC50 [2]: > 20 µM
- IC50 [3]: > 20 µM
- IC50 [4]: > 20 µM
- IC50 [5]: 18 µM
- IC50 [6]: > 20 µM
- IC50 [7]: > 20 µM

Structure (SMILES): COc1cccc(OC)c1/C=C/C(=O)c1ccc[nH]1
- IC50 [1]: > 20 µM
- IC50 [2]: > 20 µM
- IC50 [3]: 10.8 µM
- IC50 [4]: > 20 µM
- IC50 [5]: 18 µM
- IC50 [6]: 10 µM
- IC50 [7]: > 20 µM

Structure (SMILES): O=C(/C=C/c1cccc(Br)c1)c1ccc[nH]1
- IC50 [1]: > 20 µM
- IC50 [2]: > 20 µM
- IC50 [3]: > 20 µM
- IC50 [4]: 13 µM
- IC50 [5]: 14 µM
- IC50 [6]: > 20 µM
- IC50 [7]: > 20 µM

The remaining lines, values ahead:

- IC50 [1]: > 20 µM
- IC50 [2]: > 20 µM
- IC50 [3]: > 20 µM
- IC50 [4]: > 20 µM
- IC50 [5]: 18 µM
- IC50 [6]: 13 µM
- IC50 [7]: > 20 µM
Structure (SMILES): COc1ccc(/C=C/C=C/C(=O)c2ccc[nH]2)cc1

- IC50 [1]: > 20 µM
- IC50 [2]: > 20 µM
- IC50 [3]: > 20 µM
- IC50 [4]: > 20 µM
- IC50 [5]: 13 µM
- IC50 [6]: 17 µM
- IC50 [7]: > 20 µM
Structure (SMILES): COc1ccc(/C=C/C(=O)c2ccc[nH]2)cc1Br

- IC50 [1]: > 20 µM
- IC50 [2]: > 20 µM
- IC50 [3]: > 20 µM
- IC50 [4]: 8.5 µM
- IC50 [5]: 18 µM
- IC50 [6]: 13.2 µM
- IC50 [7]: > 20 µM
Structure (SMILES): O=C(/C=C/c1ccc(Br)cc1)c1ccc[nH]1

- IC50 [1]: > 20 µM
- IC50 [2]: > 20 µM
- IC50 [3]: 11.8 µM
- IC50 [4]: > 20 µM
- IC50 [5]: 11 µM
- IC50 [6]: 10 µM
- IC50 [7]: > 20 µM
Structure (SMILES): COc1ccc(/C=C/C(=O)c2ccc[nH]2)c(OC)c1

- IC50 [1]: > 20 µM
- IC50 [2]: > 20 µM
- IC50 [3]: 6.1 µM
- IC50 [4]: > 20 µM
- IC50 [5]: 15 µM
- IC50 [6]: 9 µM
- IC50 [7]: > 20 µM
Structure (SMILES): COc1cc(/C=C/C(=O)c2ccc[nH]2)cc(OC)c1

- IC50 [1]: > 20 µM
- IC50 [2]: > 20 µM
- IC50 [3]: > 20 µM
- IC50 [4]: 9.2 µM
- IC50 [5]: 17 µM
- IC50 [6]: 2.5 µM
- IC50 [7]: > 20 µM
Structure (SMILES): CCc1ccc(/C=C/C(=O)c2ccc[nH]2)o1

- IC50 [1]: > 20 µM
- IC50 [2]: > 20 µM
- IC50 [3]: 5.2 µM
- IC50 [4]: > 20 µM
- IC50 [5]: 16 µM
- IC50 [6]: 9.2 µM
- IC50 [7]: > 20 µM
Structure (SMILES): COc1cccc(/C=C/C(=O)c2ccc[nH]2)c1OC
